# Experiments:
# Experiment in all cases: KinaseProfiler Assay
# CDK1/cyclinB = CDK1/cyclinB (Homo sapiens, UniProt P06493)
# DAPK2 = DAPK2 (Homo sapiens, UniProt Q9UIK4)
# ErbB4 = ErbB4 (Homo sapiens, UniProt Q15303)
# GSK3β = GSK3β (Homo sapiens, UniProt P49841)
# GSK3α = GSK3α (Homo sapiens, UniProt P49840)
# JAK3 = target: T1, JAK3 (Homo sapiens, UniProt P52333)
# T1 sequence (P52333 1-1124): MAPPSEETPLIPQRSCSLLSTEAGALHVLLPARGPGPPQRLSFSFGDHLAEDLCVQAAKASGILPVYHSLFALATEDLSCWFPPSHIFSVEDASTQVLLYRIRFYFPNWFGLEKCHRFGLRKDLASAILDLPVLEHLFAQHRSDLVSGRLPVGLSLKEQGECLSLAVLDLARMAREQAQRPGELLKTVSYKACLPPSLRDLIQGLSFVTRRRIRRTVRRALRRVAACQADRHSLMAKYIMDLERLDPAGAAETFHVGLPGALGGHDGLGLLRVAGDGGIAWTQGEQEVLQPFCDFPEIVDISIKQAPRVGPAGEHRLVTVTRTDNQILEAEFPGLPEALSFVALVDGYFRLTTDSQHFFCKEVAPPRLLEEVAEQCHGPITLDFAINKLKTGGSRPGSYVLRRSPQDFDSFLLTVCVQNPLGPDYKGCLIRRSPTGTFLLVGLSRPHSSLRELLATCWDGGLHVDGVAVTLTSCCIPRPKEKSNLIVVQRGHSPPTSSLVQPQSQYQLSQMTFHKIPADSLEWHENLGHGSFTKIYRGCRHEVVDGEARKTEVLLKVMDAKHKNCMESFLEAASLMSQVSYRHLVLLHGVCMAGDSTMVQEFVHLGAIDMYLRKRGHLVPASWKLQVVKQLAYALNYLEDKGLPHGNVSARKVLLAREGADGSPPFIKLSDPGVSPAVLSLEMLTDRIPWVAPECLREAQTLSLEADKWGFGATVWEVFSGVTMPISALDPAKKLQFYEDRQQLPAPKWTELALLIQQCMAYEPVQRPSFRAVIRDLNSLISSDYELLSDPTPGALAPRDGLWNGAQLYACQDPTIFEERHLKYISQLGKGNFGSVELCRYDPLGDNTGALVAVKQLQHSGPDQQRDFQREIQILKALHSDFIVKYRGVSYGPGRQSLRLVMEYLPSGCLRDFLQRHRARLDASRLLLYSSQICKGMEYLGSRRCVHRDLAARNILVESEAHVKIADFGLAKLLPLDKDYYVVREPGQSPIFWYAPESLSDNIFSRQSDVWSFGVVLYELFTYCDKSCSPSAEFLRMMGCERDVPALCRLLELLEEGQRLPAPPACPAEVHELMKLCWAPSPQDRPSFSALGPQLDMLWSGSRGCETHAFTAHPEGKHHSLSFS
# MAPK1 = MAPK1 (Homo sapiens, UniProt P27361)
# Sequence of MAPK1 (P27361 whole entry): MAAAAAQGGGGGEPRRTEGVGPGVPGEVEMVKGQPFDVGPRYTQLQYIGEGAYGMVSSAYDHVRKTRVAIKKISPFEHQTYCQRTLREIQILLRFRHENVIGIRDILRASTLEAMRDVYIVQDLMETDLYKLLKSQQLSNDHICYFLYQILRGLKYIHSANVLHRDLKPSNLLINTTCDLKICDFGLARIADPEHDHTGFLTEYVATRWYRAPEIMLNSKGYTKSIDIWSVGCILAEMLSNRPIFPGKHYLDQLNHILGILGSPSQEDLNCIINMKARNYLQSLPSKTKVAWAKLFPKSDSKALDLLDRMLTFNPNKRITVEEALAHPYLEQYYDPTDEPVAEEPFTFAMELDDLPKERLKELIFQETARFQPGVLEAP
# MINK = MINK (Homo sapiens, UniProt Q8N4C8)
# Pim-2 = Pim-2 (Homo sapiens, UniProt Q9P1W9)
# PKBβ = PKBβ (Homo sapiens, UniProt P31751)
# PKBα = PKBα (Homo sapiens, UniProt P31749)
# PKCβII = PKCβII (Homo sapiens, UniProt P05771)
# Sequence of PKCβII (P05771 1-673 isoform P05771-2): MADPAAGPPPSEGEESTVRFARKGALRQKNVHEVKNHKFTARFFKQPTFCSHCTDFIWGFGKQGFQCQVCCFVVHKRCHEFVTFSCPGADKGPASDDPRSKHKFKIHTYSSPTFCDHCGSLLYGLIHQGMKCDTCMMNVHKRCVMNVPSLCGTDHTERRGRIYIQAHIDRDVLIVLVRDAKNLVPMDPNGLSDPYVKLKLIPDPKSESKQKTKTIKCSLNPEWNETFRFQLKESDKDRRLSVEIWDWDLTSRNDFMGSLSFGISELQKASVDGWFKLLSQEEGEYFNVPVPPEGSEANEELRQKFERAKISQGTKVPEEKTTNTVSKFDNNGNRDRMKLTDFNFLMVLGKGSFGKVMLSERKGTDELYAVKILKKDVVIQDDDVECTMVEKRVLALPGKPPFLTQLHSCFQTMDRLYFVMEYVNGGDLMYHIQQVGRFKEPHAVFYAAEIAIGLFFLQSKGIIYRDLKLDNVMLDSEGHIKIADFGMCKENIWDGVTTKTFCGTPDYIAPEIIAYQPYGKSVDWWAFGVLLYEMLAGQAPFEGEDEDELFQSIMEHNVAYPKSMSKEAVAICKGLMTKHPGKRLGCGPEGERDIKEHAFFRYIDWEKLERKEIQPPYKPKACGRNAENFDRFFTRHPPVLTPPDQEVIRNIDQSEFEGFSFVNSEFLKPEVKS
# Ros = Ros (Homo sapiens, UniProt P08922)
# Sequence of Ros (P08922 28-2347): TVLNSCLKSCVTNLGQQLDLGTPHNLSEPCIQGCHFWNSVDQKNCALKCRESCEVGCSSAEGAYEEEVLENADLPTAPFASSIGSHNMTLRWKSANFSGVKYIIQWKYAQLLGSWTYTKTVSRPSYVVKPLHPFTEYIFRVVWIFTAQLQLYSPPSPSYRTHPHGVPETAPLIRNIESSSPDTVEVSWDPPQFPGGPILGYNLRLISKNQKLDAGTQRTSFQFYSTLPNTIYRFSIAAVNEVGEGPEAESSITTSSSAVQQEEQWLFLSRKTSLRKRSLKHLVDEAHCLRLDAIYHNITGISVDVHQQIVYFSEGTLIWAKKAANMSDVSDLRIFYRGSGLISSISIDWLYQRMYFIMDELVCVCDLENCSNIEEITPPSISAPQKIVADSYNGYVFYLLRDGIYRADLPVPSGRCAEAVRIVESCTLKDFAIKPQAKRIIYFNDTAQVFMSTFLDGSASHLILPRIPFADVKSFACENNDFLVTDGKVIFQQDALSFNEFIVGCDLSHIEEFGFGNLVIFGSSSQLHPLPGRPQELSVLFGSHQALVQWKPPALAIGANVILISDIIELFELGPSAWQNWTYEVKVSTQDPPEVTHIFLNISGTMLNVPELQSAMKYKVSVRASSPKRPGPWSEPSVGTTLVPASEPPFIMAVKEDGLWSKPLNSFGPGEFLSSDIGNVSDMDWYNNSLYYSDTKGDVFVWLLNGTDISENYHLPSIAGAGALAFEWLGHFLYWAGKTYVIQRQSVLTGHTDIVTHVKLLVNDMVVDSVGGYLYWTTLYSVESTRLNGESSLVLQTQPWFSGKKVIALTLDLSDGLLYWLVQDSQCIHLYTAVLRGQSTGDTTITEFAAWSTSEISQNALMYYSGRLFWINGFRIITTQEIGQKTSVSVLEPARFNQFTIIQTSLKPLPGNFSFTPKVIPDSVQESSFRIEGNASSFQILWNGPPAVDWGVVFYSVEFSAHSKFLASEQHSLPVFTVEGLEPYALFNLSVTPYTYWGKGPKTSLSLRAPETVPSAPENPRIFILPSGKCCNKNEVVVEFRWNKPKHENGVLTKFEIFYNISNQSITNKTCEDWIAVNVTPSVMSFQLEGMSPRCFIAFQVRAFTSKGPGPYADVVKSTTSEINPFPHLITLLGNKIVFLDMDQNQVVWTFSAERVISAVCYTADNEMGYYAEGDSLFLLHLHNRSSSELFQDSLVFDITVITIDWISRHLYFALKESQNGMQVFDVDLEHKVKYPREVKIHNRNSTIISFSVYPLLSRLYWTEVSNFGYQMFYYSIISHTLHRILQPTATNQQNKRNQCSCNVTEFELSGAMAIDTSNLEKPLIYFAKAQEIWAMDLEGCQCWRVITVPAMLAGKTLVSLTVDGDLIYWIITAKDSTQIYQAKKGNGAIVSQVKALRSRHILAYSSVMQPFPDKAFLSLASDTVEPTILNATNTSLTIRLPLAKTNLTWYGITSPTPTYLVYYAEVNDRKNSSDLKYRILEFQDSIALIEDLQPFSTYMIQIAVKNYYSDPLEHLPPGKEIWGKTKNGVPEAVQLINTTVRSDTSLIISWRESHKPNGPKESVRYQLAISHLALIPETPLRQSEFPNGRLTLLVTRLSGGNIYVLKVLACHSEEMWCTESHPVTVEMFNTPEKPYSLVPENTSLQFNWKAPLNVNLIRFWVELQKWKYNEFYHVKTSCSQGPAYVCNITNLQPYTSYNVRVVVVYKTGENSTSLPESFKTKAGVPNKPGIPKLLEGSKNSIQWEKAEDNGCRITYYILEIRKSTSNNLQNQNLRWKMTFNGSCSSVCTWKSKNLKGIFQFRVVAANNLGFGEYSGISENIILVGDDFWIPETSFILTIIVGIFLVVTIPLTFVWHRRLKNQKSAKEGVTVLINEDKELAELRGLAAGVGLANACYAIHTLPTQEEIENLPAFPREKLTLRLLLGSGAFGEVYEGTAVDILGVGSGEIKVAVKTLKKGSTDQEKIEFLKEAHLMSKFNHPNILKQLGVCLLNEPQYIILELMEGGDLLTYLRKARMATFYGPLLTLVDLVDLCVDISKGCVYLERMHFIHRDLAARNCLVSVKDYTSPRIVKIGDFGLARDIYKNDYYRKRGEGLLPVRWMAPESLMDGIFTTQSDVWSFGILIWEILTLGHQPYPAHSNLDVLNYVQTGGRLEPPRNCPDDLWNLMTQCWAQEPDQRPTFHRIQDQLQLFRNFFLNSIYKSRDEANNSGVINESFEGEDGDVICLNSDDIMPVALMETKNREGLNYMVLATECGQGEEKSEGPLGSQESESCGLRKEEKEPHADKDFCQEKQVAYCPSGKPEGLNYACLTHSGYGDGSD
# Rsk1 = system: Rsk1
# PAK5 = PAK5 (Homo sapiens, UniProt Q9P286)
# Sequence of PAK5 (Q9P286 whole entry): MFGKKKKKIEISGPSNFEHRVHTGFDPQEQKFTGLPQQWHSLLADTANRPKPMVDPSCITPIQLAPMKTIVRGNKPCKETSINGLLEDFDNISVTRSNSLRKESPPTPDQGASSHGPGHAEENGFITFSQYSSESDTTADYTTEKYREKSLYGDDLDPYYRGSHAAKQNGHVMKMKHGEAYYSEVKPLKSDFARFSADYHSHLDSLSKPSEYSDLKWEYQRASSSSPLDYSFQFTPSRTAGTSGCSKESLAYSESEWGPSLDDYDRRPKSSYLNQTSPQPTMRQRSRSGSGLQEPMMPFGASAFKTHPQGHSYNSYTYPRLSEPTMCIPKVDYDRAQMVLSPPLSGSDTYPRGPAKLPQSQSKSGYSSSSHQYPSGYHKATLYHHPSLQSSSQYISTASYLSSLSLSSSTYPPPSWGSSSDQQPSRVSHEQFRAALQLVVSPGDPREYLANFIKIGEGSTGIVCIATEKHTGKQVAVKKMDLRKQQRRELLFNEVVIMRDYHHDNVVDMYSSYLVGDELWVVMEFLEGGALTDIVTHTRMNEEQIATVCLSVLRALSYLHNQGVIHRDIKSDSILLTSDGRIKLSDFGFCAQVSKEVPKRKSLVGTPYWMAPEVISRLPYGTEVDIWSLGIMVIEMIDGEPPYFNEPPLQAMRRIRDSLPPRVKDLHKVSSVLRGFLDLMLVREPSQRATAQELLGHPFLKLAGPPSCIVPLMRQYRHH
# CK1γ2 = CK1γ2 (Homo sapiens, UniProt P78368)
# Sequence of CK1γ2 (P78368 whole entry): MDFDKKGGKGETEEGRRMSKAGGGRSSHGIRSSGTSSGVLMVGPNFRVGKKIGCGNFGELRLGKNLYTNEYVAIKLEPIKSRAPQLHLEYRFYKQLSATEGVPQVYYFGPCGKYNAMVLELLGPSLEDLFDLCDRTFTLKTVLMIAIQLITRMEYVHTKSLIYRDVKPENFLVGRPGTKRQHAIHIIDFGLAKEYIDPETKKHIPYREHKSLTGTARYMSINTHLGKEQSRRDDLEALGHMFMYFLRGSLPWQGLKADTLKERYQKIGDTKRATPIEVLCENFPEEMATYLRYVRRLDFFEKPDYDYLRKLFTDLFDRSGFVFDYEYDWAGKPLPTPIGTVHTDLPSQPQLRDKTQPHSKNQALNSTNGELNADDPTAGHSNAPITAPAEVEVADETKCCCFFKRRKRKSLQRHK
# Sequence of GSK3β (P49841 whole entry): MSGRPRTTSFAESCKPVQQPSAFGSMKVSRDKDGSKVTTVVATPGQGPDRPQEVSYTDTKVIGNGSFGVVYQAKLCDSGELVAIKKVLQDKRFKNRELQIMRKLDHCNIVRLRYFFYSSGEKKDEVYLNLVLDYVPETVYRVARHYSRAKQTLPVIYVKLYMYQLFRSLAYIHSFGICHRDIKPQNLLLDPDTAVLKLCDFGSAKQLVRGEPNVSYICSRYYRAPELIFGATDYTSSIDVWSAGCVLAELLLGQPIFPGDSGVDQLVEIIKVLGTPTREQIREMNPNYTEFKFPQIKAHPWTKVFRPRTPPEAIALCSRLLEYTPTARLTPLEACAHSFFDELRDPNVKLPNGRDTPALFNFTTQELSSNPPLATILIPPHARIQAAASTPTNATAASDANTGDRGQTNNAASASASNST
structure (smiles),measurement,setting,value
"COc1cc(O)c(CC=C(C)C)c(O)c1C(=O)/C=C/c1ccc(O)cc1 [Xanthohumol, xanthohumol]","Kinase activity, % of Control",CDK1/cyclinB; 1 ug/ml,118 % of Control
same,"Kinase activity, % of Control",CDK1/cyclinB; 5 ug/ml,103 % of Control
same,"Kinase activity, % of Control",CDK1/cyclinB; 25 ug/ml,46 % of Control
same,"Kinase activity, % of Control",CDK1/cyclinB; 50 ug/ml,18 % of Control
same,"Kinase activity, % of Control",DAPK2; 1 ug/ml,105 % of Control
same,"Kinase activity, % of Control",DAPK2; 5 ug/ml,88 % of Control
same,"Kinase activity, % of Control",DAPK2; 25 ug/ml,45 % of Control
same,"Kinase activity, % of Control",DAPK2; 50 ug/ml,26 % of Control
same,"Kinase activity, % of Control",ErbB4; 1 ug/ml,132 % of Control
same,"Kinase activity, % of Control",ErbB4; 5 ug/ml,85 % of Control
same,"Kinase activity, % of Control",ErbB4; 25 ug/ml,52 % of Control
same,"Kinase activity, % of Control",ErbB4; 50 ug/ml,27 % of Control
same,"Kinase activity, % of Control",GSK3β; 1 ug/ml,120 % of Control
same,"Kinase activity, % of Control",GSK3β; 5 ug/ml,99 % of Control
same,"Kinase activity, % of Control",GSK3β; 25 ug/ml,25 % of Control
same,"Kinase activity, % of Control",GSK3β; 50 ug/ml,3 % of Control
same,"Kinase activity, % of Control",GSK3α; 1 ug/ml,102 % of Control
same,"Kinase activity, % of Control",GSK3α; 25 ug/ml,11 % of Control
same,"Kinase activity, % of Control",GSK3α; 50 ug/ml,−4 % of Control
same,"Kinase activity, % of Control",JAK3; 1 ug/ml,104 % of Control
same,"Kinase activity, % of Control",JAK3; 5 ug/ml,84 % of Control
same,"Kinase activity, % of Control",JAK3; 25 ug/ml,17 % of Control
same,"Kinase activity, % of Control",JAK3; 50 ug/ml,5 % of Control
same,"Kinase activity, % of Control",MAPK1; 5 ug/ml,64 % of Control
same,"Kinase activity, % of Control",MAPK1; 25 ug/ml,19 % of Control
same,"Kinase activity, % of Control",MAPK1; 50 ug/ml,17 % of Control
same,"Kinase activity, % of Control",MINK; 1 ug/ml,42 % of Control
same,"Kinase activity, % of Control",MINK; 5 ug/ml,10 % of Control
same,"Kinase activity, % of Control",MINK; 25 ug/ml,5 % of Control
same,"Kinase activity, % of Control",MINK; 50 ug/ml,7 % of Control
same,"Kinase activity, % of Control",Pim-2; 1 ug/ml,104 % of Control
same,"Kinase activity, % of Control",Pim-2; 5 ug/ml,48 % of Control
same,"Kinase activity, % of Control",Pim-2; 25 ug/ml,14 % of Control
same,"Kinase activity, % of Control",Pim-2; 50 ug/ml,6 % of Control
same,"Kinase activity, % of Control",PKBβ; 1 ug/ml,146 % of Control
same,"Kinase activity, % of Control",PKBβ; 5 ug/ml,102 % of Control
same,"Kinase activity, % of Control",PKBβ; 25 ug/ml,1 % of Control
same,"Kinase activity, % of Control",PKBβ; 50 ug/ml,8 % of Control
same,"Kinase activity, % of Control",PKBα; 1 ug/ml,102 % of Control
same,"Kinase activity, % of Control",PKBα; 25 ug/ml,18 % of Control
same,"Kinase activity, % of Control",PKBα; 50 ug/ml,5 % of Control
same,"Kinase activity, % of Control",PKCβII; 1 ug/ml,108 % of Control
same,"Kinase activity, % of Control",PKCβII; 5 ug/ml,108 % of Control
same,"Kinase activity, % of Control",PKCβII; 25 ug/ml,71 % of Control
same,"Kinase activity, % of Control",PKCβII; 50 ug/ml,79 % of Control
same,"Kinase activity, % of Control",Ros; 1 ug/ml,101 % of Control
same,"Kinase activity, % of Control",Ros; 5 ug/ml,99 % of Control
same,"Kinase activity, % of Control",Ros; 25 ug/ml,85 % of Control
same,"Kinase activity, % of Control",Ros; 50 ug/ml,94 % of Control
same,"Kinase activity, % of Control",Rsk1; 1 ug/ml,34 % of Control
same,"Kinase activity, % of Control",Rsk1; 5 ug/ml,49 % of Control
same,"Kinase activity, % of Control",Rsk1; 25 ug/ml,4 % of Control
same,"Kinase activity, % of Control",Rsk1; 50 ug/ml,0 % of Control
same,"Kinase activity, % of Control",PAK5; 1 ug/ml,106 % of Control
same,"Kinase activity, % of Control",PAK5; 5 ug/ml,99 % of Control
same,"Kinase activity, % of Control",PAK5; 25 ug/ml,42 % of Control
same,"Kinase activity, % of Control",PAK5; 50 ug/ml,5 % of Control
same,"Kinase activity, % of Control",CK1γ2; 1 ug/ml,92 % of Control
same,"Kinase activity, % of Control",CK1γ2; 5 ug/ml,48 % of Control
same,"Kinase activity, % of Control",CK1γ2; 25 ug/ml,30 % of Control
same,"Kinase activity, % of Control",CK1γ2; 50 ug/ml,12 % of Control
